Patent publication US20070112068A1, “Nitrile compound and its use in pest control” (priority 2003, published 2007)

Legend:
Assay type in all cases: in vivo
Blattella germanica [1] = assay: Experimental Example 15: treated filter paper in paper box, Blattella germanica; settings: 0.1 ml of 2.5% (w/v) acetone solution on filter paper in paper box; after 7 days
Description: 2.5% (w/v) solutions of the present compounds (23), (24) and (31) in acetone were prepared. 0.1 ml of the solution was added dropwise onto a filter paper with 2 cm×2 cm and then air-dried. This filter paper was attached to the center of the inside bottom of a paper box having 10 cm (width)×2 cm (height)×7 cm (depth) with a two-sided tape. One hole of 5 mm in width and 2 cm in height was made through one side of this box. This box was placed in a plastic vat with 25 cm×20 cm×8 cm in height and therein 10 females and 10 males of Blattella germanica were released. The inside wall of the plastic vat used in this experiment was coated with talc for preventing the escape of cockroaches. The plastic vat contained feed and water and left at 25° C. After 7 days, Blattella germanica was observed and the death rate of the pest was calculated. This experiment was repeated two times.

Blattella germanica [2] = assay: Experimental Example 18: smoking preparation in Peet-Grady chamber, Blattella germanica; settings: smoking preparation (Formulation Example 16); 2 hours exposure, after 72 hours
Description: Plastic cups (diameter: 12.5 cm, height: 8 cm) containing 10 (5 males and 5 females) imagoes of Blattella germanica were placed at the two corners of a Peet-Grady chamber with 1.8 m (width)×1.8 m (depth)×1.8 m (height). A plastic container containing water was placed at the center of the bottom of the Peet-Grady chamber and a smoking preparation of the present compound (31) prepared according to Formulation Example 16 was placed in this plastic cup. After 2 hours, Blattella germanica was collected, transferred to a 200 mL plastic cup, and left together with feed and water at 25° C. After 72 hours, the number of surviving Blattella germanica was examined and the death rate of the pest was calculated.

Formica fusca japonica [3] = assay: Experimental Example 19: direct oil spray in CSMA chamber, Formica fusca japonica; settings: 0.4 ml of 0.0625% (w/v) oil sprayed directly; after 72 hours
Description: 18.8 mg of the present compound (31) was dissolved in 30 mL of a mixed solvent of 90 parts by weight of Isopar M (isoparaffin, the registered trade name of Exxon Chemical) and 10 parts by weight of dichloromethane to prepare a 0.0625% (w/v) oil. A plastic cup (200 mL) containing 10 imagoes of Formica fusca japonica was placed on the bottom of a CSMA chamber (width: 46 cm, depth: 46 cm, height: 70 cm). 0.4 ml of the oil was directly sprayed on the test Formica fusca japonica from the upper side of the CSMA chamber. After 10 seconds from spraying, the container containing Formica fusca japonica was removed. Formica fusca japonica was transferred to another plastic container (200 mL) and left together with feed and water at 25° C. After 72 hours from pesticide treatment, Formica fusca japonica was observed and the death rate of the pest was calculated.

Formica fusca japonica [4] = assay: Experimental Example 20: poison bait, Formica fusca japonica; settings: poison bait: 1 ml of 0.1% by weight acetone solution per 1 g unrefined sugar; 0.5 g bait; after 48 hours
Description: 1 ml of a 0.1% by weight solution of the present compound (31) in acetone was added dropwise to 1 g of a commercially available powdery unrefined sugar, mixed thoroughly and then air-dried to obtain a poison bait. A cotton ball impregnated with water and 0.5 g of the poison bait on an aluminum dish were placed in a plastic cup (860 mL) containing 10 imagoes of Formica fusca japonica. After 48 hours, the number of surviving Formica fusca japonica was examined and the death rate of the pest was calculated.

Halyomorpha mista = assay: Experimental Example 24: direct oil spray in CSMA chamber, Halyomorpha mista; settings: 0.4 ml of 5% (w/v) oil sprayed directly; after 72 hours
Description: 1.5 g of the present compound (31) is dissolved in 30 mL of a mixed solvent of 90 parts by weight of Isopar M (isoparaffin; the registered trade name of Exxon Chemical) and 10 parts by weight of dichloromethane to prepare a 5% (w/v) oil. A plastic cup (860 mL) containing 10 imagoes of Halyomorpha mista is covered with a nylon net (mesh width: 2 mm) and then placed on the bottom of a CSMA chamber (width: 46 cm, depth: 46 cm, height: 70 cm). 0.4 ml of the oil is directly sprayed on the test Halyomorpha mista from the upper side of the CSMA chamber. After 10 seconds from spraying, the cup containing Halyomorpha mista is removed, and feed and water are placed in the cup.

For `N#CC(C#N)(CCC(F)(F)F)CC(F)(F)C(F)(F)C(F)(F)C(F)F` [(31)], the “death rate of the pest” value (Blattella germanica [1]) was 100%, the “death rate of the pest” value (Blattella germanica [2]) was 100% and the “death rate of the pest” value (Formica fusca japonica [3]) was 100%. The “death rate of Formica fusca japonica” value (Formica fusca japonica [4]) was 100% and the pesticidal effect (Halyomorpha mista) was “pesticidal effect on Halyomorpha mista is confirmed”.
